Assay results reported in patent publication US20060173066A1, “Remedy for diabetes” (Kyowa Hakko Kogyo Co., Ltd., priority 2003, published 2006).

Assays:
[1] = system: KK-Ay/Ta Jcl mice of a type 2 diabetic model; assay: Example 2: non-fasting blood-sugar level in mice fed CE-2 feed with 1% by weight of test substance; assay type: in vivo; settings: for antidiabetic action (conclusion from Table 3): 10 days; for Blood-Sugar Level, 10th Day of the Test / Blood-Sugar Level, Initial Day of the Test: non-fasting, tail vein blood, mean ± standard error, n=5; for Blood-Sugar Level, Initial Day of the Test: initial day (baseline)
Text: (§1) KK-Ay/Ta Jcl mice (Clea Japan, Inc.; male;,six weeks age) (15 mice) of a type 2 diabetic model were divided into three groups each comprising five mice and named group 1 to group 3.
(§2) The mice of the groups 1 to 3 were made free to take feed and water. A commercially available feed CE-2 (manufactured by Clea Japan, Inc.) was ingested to the mice of group 1. CE-2 to which 1% by weight of trans-4-hydroxy-L-proline ethyl ester (manufactured by Sanyo Chemical Laboratory Co., Ltd.; hereinafter, abbreviated as hydroxyproline ethyl ester) was added was ingested to the mice of group 2. CE-2 to which 1% by weight of trans-N,O-diacetyl-4-hydroxy-L-proline oleyl ester (manufactured by Nissei Kagaku; hereinafter, abbreviated as diacetylhydroxyproline oleyl ester) was added was ingested to the mice of group 3.
(§3) On the initial day of the test and on the 10th day thereafter, blood was collected from tail vein and blood-sugar level upon non-fasting was measured by a Medisafe Reader GR-101. The mice were fasted for 18 hours during the 10th day to the 11th day after the start of the test and whole blood was collected from descending vena cava to prepare serum. The serum-insulin level was measured by a Levi Insulin Kit Mouse-T. The value was shown by mean value±standard error (n=5) and statistic ratio of risk (p value) was determined by a t-test. With regard to the ingested amounts during the test periods, there was no significant difference among the groups 1 to 3.

[2] = system: KK-Ay/Ta Jcl mice of a type 2 diabetic model; assay: Example 2: serum-insulin level after 18 hours fasting in mice fed CE-2 feed with 1% by weight of test substance; assay type: in vivo; settings: for Serum-Insulin Level: 11th day after 18 hours fasting, mean ± standard error, n=5
Text: as §1, §2, §3

[3] = system: KK-Ay/Ta Jcl mice of a type 2 diabetic model; assay: Example 1: serum-insulin level after 18 hours fasting in mice fed CE-2 feed with 1% by weight of test substance; assay type: in vivo
Text: (§4) KK-Ay/Ta Jcl mice (Clea Japan, Inc.; male; six weeks age) (15 mice) of a type 2 diabetic model were divided into three groups each comprising five mice and named group 1 to group 3.
(§5) The mice of the groups 1 to 3 were made free to take feed and water. A commercially available feed CE-2 (manufactured by Clea Japan, Inc.) was ingested to the mice of group 1. CE-2 to which 1% by weight of trans-4-hydroxy-L-proline (manufactured by Kyowa Hakko Kogyo; hereinafter, abbreviated as hydroxyproline) was added was ingested to the mice of group 2. CE-2 to which 1% by weight of trans-N-acetyl-4-hydroxy-L-proline (manufactured by Kyowa Hakko Kogyo; hereinafter, abbreviated as N-acetylhydroxyproline) was added was ingested to the mice of group 3.
as §3, with “17th” for “10th”, “GR-101 (manufactured by Thermo Co.).” for “GR-101.”, “18th” for “11th”, “Mouse-T (manufactured by Shibayagi).” for “Mouse-T.”

[4] = system: KK-Ay/Ta Jcl mice of a type 2 diabetic model; assay: Example 3: blood-sugar level after oral glucose load in fasted mice; assay type: in vivo; settings: 1 g/kg B.W. oral
Method: KK-Ay/Ta Jcl mice (Clea Japan, Inc.; male; six weeks age) (16 mice) of a type 2 diabetic model were divided into 2 groups each comprising 8 mice and named group 1 and group 2.
After fasting for 18 hours, a physiological saline solution was orally administered to the mice of the group 1 while, to the mice of the group 2, 1 g/kg body weight (hereinafter, referred to as “B.W.”) of a 20% (w/v) aqueous solution of the N-acetylhydroxyproline (dissolved in a physiological saline solution) was orally administered. After 1 hour, 2 g/kg B.W. of a 40% (w/v) aqueous solution of glucose was orally administered to the mice of the groups 1 and 2 to load with sugar. Blood was collected from tail vein 60 minutes before (−60 minutes) administration of the aqueous glucose solution, upon the administration (0 minute) and 30 and 120 minutes after the administration and blood-sugar levels were measured by a Medisafe Reader GR-101. The value was shown by mean value±standard error (n=8) and statistic ratio of risk (p value) was determined by a t-test.

[5] = system: KK-Ay/Ta Jcl mice of a type 2 diabetic model; assay: Example 1: non-fasting blood-sugar level in mice fed CE-2 feed with 1% by weight of test substance; assay type: in vivo
Text: as §4, §5
as §3, with “17th” for “10th”, “GR-101 (manufactured by Thermo Co.).” for “GR-101.”, “18th” for “11th”, “Mouse-T (manufactured by Shibayagi).” for “Mouse-T.”

[6] = system: C2C12 cells; assay: Example 6: consumption of glucose of differentiated C2C12 cells (glucose concentration in supernatant); assay type: cell-based, mouse; settings: for action on insulin effect on muscle (conclusion from Table 8): 100 μg/ml with insulin 0.1 μg/ml; for insulin concentration necessary to achieve the same result if insulin is used solely: relative to 0.1 μg/ml insulin used with 100 μg/ml test substance (1 μg/ml); for Glucose (concentration in supernatant after incubation): 3 days incubation, mean ± standard deviation, n=3
Method: Each 1.2×10^5 C2C12 cells (cell strain derived from striated muscles of mouse; Dainippon Pharmaceutical Co., Ltd.) was inoculated on a 12-well plate and incubated at 37° C. for 3 days in a CO2 incubator (5% CO2/95% air) with a DMEM medium (manufactured by Invitrogen) to which 10% fetal bovine serum (manufactured by Invitrogen) was added. When the cells became confluent, the medium was exchanged to a DMEM medium to which 2% horse serum (manufactured by Invitrogen) was added and incubation was further conducted for 4 days to differentiate to myotubes. The medium was exchanged once again with a DMEM medium to which 2% horse serum was added and further incubated for 3 days after addition of bovine insulin (manufactured by Invitrogen) so as to make its final concentration 1 μg/ml or 0.1 μg/ml, a mixture of bovine insulin and trans-4-hydroxy-L-proline methyl ester (manufactured by Kokusan Chemical Co., Ltd.; hereinafter, referred to as hydroxyproline methyl ester) so as to make their final concentrations 0.1 μg/ml and 100 μg/ml, respectively or a mixture of bovine insulin and hydroxyproline ethyl ester so as to make their final concentrations 0.1 μg/ml and 100 μg/ml, respectively. Each of the supernatant liquids after the incubation was recovered and glucose concentration was measured by a Glucose CII Test Wako (manufactured by Wako Pure Chemical Industries, Ltd.) whereby consumption of glucose of the differentiated C2C12 cells was investigated. The values are shown by mean value±standard deviation (n=3, mg/l) and statistic ratio of risk (p value) was determined by a t-test.

[7] = co-presence of 0.1 μg/ml of insulin and 100 μg/ml of test substance, vs insulin 0.1 μg/ml
[8] = test substance 100 μg/ml together with insulin 0.1 μg/ml

Compound	antidiabetic action (conclusion from Table 3) [1]	Blood-Sugar Level, 10th Day of the Test [1]	Blood-Sugar Level, Initial Day of the Test [1]	antidiabetic action by improving insulin resistance (conclusion from Tables 3 and 4) [2]	Serum-Insulin Level [2]	action on insulin effect on muscle (conclusion from Table 8) [6]	consumption of glucose of C2C12 cells [6, 7]	insulin concentration necessary to achieve the same result if insulin is used solely [6]	Glucose (concentration in supernatant after incubation) [6, 8]	further results
CCCCCCCC/C=C\CCCCCCCCOC(=O)[C@@H]1C[C@@H](OC(C)=O)CN1C(C)=O (relative stereo) [diacetylhydroxyproline oleyl ester, trans-N,O-diacetyl-4-hydroxy-L-proline oleyl ester]	antidiabetic action	215.2 ± 20.3 mg/dL	241.0 ± 11.0 mg/dL	show an antidiabetic action by improving the insulin resistance	0.64 ± 0.12 ng/mL					
CC(=O)N1C[C@H](O)C[C@H]1C(=O)O [N-acetylhydroxyproline, trans-N-acetyl-4-hydroxy-L-proline]										antidiabetic action by improving insulin resistance (conclusion from Tables 1 and 2) [3]: show an antidiabetic action by improving the insulin resistance; Serum-Insulin Level ([3]; 18th day after 18 hours fasting, mean ± standard error, n=5): 0.69 ± 0.06 ng/mL; antidiabetic action (conclusion from Table 5) ([4]; glucose load): antidiabetic action; Blood-Sugar Level, 30 min ([4]; 30 minutes after glucose 2 g/kg, mean ± standard error, n=8): 407.1 ± 17.1 mg/dL; Blood-Sugar Level, −60 min ([4]; 60 minutes before glucose 2 g/kg (baseline, at dosing), mean ± standard error, n=8): 159.4 ± 5.6 mg/dL; Blood-Sugar Level, 120 min ([4]; 120 minutes after glucose 2 g/kg, mean ± standard error, n=8): 210.4 ± 14.4 mg/dL; Blood-Sugar Level, 0 min ([4]; upon glucose administration 2 g/kg, mean ± standard error, n=8): 179.9 ± 11.6 mg/dL; antidiabetic action (conclusion from Table 1) ([5]; 17 days): antidiabetic action; Blood-Sugar Level, 17th Day of the Test ([5]; non-fasting, tail vein blood, 17th day, mean ± standard error, n=5): 226.2 ± 12.9 mg/dL; Blood-Sugar Level, Initial Day of the Test ([5]; non-fasting, tail vein blood, initial day (baseline), mean ± standard error, n=5): 241.0 ± 15.5 mg/dL
CCOC(=O)[C@@H]1C[C@@H](O)CN1 [hydroxyproline ethyl ester, trans-4-hydroxy-L-proline ethyl ester]	antidiabetic action	217.2 ± 11.3 mg/dL	253.0 ± 9.5 mg/dL	show an antidiabetic action by improving the insulin resistance	0.52 ± 0.10 ng/mL	potentiate the action of insulin to the muscle	significantly increased	ten-fold	984 ± 29 mg/L	
COC(=O)[C@@H]1C[C@@H](O)CN1 [hydroxyproline methyl ester, trans-4-hydroxy-L-proline methyl ester]						potentiate the action of insulin to the muscle	significantly increased	ten-fold	926 ± 47 mg/L	
Insulin: bovine insulin (manufactured by Invitrogen) [reference compound]										consumption of glucose of C2C12 cells ([6]; addition of 0.1 μg/ml of insulin, vs nothing added): significantly promoted; Glucose (concentration in supernatant after incubation) ([6]; insulin 0.1 μg/ml alone): 1260 ± 15 *^1 mg/; Glucose (concentration in supernatant after incubation) ([6]; insulin 1 μg/ml alone): 942 ± 34 mg/L
